Laboratory results as given in US4565861A, “Serirubicum” (Microbial Chemistry Research Foundation, priority 1983, dated 1986).
Values after ≈ are worked out from the molar mass of the structure shown. Read-outs that look alike come from different tables or passages of the source.

Assays:
[1] = system: Protein synthesis in L1210 cells; assay: Inhibition of protein synthesis in L1210 cells; type: cell-based; conditions: at 10 μg/ml
From the text: (§1) These findings indicated its therapeutic effect on tumors in experimental animals.

[2] = system: DNA synthesis in L1210 cells; assay: Inhibition of DNA synthesis in L1210 cells; type: cell-based
From the text: as §1

[3] = system: M. lysodeikticus IF03333; assay: Antimicrobial activity, agar dilution method; type: cell-based
From the text: (§2) The antimicrobial activity of serirubicin according to the present invention was examined. It is expressed as minimum inhibitory concentration (MIC) determined by the agar dilution method.

[4] = system: S. aureus MS9610; assay: Antimicrobial activity, agar dilution method; type: cell-based
From the text: as §2

[5] = system: S. aureus MS8710; assay: Antimicrobial activity, agar dilution method; type: cell-based
From the text: as §2

[6] = system: Sal. typhi T-63; assay: Antimicrobial activity, agar dilution method; type: cell-based
From the text: as §2

[7] = system: S. aureus 209P; assay: Antimicrobial activity, agar dilution method; type: cell-based
From the text: as §2

[8] = system: Coryn. bovis 1810; assay: Antimicrobial activity, agar dilution method; type: cell-based
From the text: as §2

[9] = system: S. aureus Smith; assay: Antimicrobial activity, agar dilution method; type: cell-based
From the text: as §2

[10] = system: B. cereus ATCC10702; assay: Antimicrobial activity, agar dilution method; type: cell-based
From the text: as §2

[11] = system: B. subtilis PCI219; assay: Antimicrobial activity, agar dilution method; type: cell-based
From the text: as §2

[12] = system: L1210 leukemia cells; type: in vivo, CDF1 mice; conditions: i.p., daily for 10 days
Description: CDF1 mice were intraperitoneally implanted with 1×10^5 L1210 leukemia cells/mouse as a suspension. After the implantation, 0.25 ml of a solution containing the test compound was intraperitoneally injected into each mouse, each day, for 10 days, beginning on the day of implantation.
The increase of life span (%) compared with the control group consisting of mice administered with physiological saline solution instead of the test compound solution was calculated from the following equation: [formula]

[13] = system: RNA synthesis in L1210 cells; assay: Inhibition of RNA synthesis in L1210 cells; type: cell-based
From the text: as §1

[14] = system: L1210 cells; assay: Growth inhibition of cultured L1210 cells; type: cell-based
From the text: as §1

Compound: CCC1(O)CC(OC2CC(N(C)C)C(OC3CC4OC5CC(=O)C(C)OC5OC4C(C)O3)C(C)O2)c2cc3c(c(O)c2C1OC1CC(N(C)C)C(OC2CC4OC5CC(=O)C(C)OC5OC4C(C)O2)C(C)O1)C(=O)c1cccc(O)c1C3=O (stereo not drawn) [serirubicin]
- Protein synthesis inhibition [1]: 32%
- ID50 DNA synthesis [2]: 0.46 µg/mL (≈ 0.395 µM)
- MIC [3]: 0.78 µg/mL (≈ 0.669 µM)
- MIC [4]: 0.78 µg/mL (≈ 0.669 µM)
- MIC [5]: 0.78 µg/mL (≈ 0.669 µM)
- MIC [6]: > 3.12 µg/mL
- MIC [7]: 0.78 µg/mL (≈ 0.669 µM)
- MIC [8]: 0.39 µg/mL (≈ 0.335 µM)
- MIC [9]: 1.56 µg/mL (≈ 1.34 µM)
- MIC [10]: 0.78 µg/mL (≈ 0.669 µM)
- MIC [11]: 0.78 µg/mL (≈ 0.669 µM)
- Increase of life span ([12]; 0.031 mg/kg/day): 119%
- Increase of life span ([12]; 0.063 mg/kg/day): 113%
- Increase of life span ([12]; 0.125 mg/kg/day): 137%
- Increase of life span ([12]; 0.25 mg/kg/day): 274%
- Increase of life span ([12]; 0.5 mg/kg/day): 143%
- Increase of life span ([12]; 1.0 mg/kg/day): 149%
- ID50 RNA synthesis ([13]; L1210 cells): 0.086 µg/mL (≈ 0.0738 µM)
- Inhibition of RNA synthesis (in words) ([13]; cultured L1210 cells): RNA synthesis was inhibited at particularly low concentration
- ID50 Growth ([14]; L1210 cells): 0.004 µg/mL (≈ 0.00343 µM)
- Inhibition of growth (in words) ([14]; cultured L1210 cells): inhibited the growth of cultured L1210 cells at very low concentrations
